Converted amounts (≈) assume the structure as drawn.
Key:
Assay type in all cases: functional, cell-based
MCF7 = assay: Cytotoxicity against human MCF7 cells
HCT-116 = assay: Cytotoxicity against human HCT116 cells
CCRF-CEM = assay: Cytotoxicity against human CCRF-CEM cells
SK-MEL-5 = assay: Cytotoxicity against human SK-MEL-5 cells

In the case of C=C1C(=O)OC2C(=O)[C@H](C)CCC/C(C)=C/CC[C@@]3(C)O[C@@H]3C[C@@H]12 (some centres undefined) [SUCCINOLIDE], the IC50 (MCF7) is reported as 3 µg/mL (≈ 9.02 µM), the IC50 (HCT-116) is reported as 2 µg/mL (≈ 6.02 µM) and the IC50 (CCRF-CEM) is reported as ≥ 50 µg/mL.
For C=C1C(=O)O[C@H]2[C@H](OC(C)=O)[C@H](C)CCC/C(C)=C/CC[C@@]3(C)O[C@@H]3C[C@@H]12, the IC50 (MCF7) was 8 µg/mL (≈ 21.2 µM), the IC50 (HCT-116) was 8 µg/mL (≈ 21.2 µM) and the IC50 (CCRF-CEM) was ≥ 50 µg/mL.
Compound C=C1C(=O)O[C@H]2[C@@H](OC(C)=O)[C@H](C)CCC/C(C)=C/CC[C@@]3(C)O[C@@H]3C[C@@H]12 has an IC50 (SK-MEL-5) of 5 µg/mL (≈ 13.3 µM), an IC50 (MCF7) of 6 µg/mL (≈ 15.9 µM) and an IC50 (HCT-116) of 0.4 µg/mL (≈ 1.06 µM).

Source: ChEMBL document CHEMBL1147354, “Further bioactive cembranolide diterpenes from the gorgonian Eunicea succinea” (J Nat Prod, 1993)
